# Measured values taken from ChEMBL document CHEMBL6078668, “Synthesis and biological evaluation of lappaconitine analogues as potential anti-neuroinflammatory agents by side chain modification and scaffold hopping strategy” (Bioorg Med Chem, 2025).
# Tests used:
# BV-2 [1] = test: Anti-neuroinflammatory activity against LPS-stimulated C57BL/6 mouse BV-2 cells assessed as inhibition of NO release at 10 uM preincubated with compound for 4 hrs followed by LPS addition and measured after 24 hrs by Griess reagent based assay relative to control; assay type: functional; details: C57BL/6, BV-2, time 28 hrs
# [2] = Cytotoxicity against C57BL/6 mouse BV-2 cells assessed as survival rate at 10 uM incubated for 24 hrs by MTT assay relative to control; assay type: toxicity, cell-based; details: read-out: Survival
# [3] = Cytotoxicity against C57BL/6 mouse BV-2 cells assessed as survival rate at 20 uM incubated for 24 hrs by MTT assay relative to control; assay type: toxicity, cell-based; details: read-out: INH
# BV-2 [4] = test: Anti-neuroinflammatory activity against LPS-stimulated C57BL/6 mouse BV-2 cells assessed as inhibition of NO release at 20 uM preincubated with compound for 4 hrs followed by LPS addition and measured after 24 hrs by Griess reagent based assay relative to control; assay type: functional; details: C57BL/6, BV-2, time 28 hrs
# [5] = Cytotoxicity against C57BL/6 mouse BV-2 cells assessed as survival rate at 30 uM incubated for 24 hrs by MTT assay relative to control; assay type: toxicity, cell-based; details: read-out: Survival
# BV-2 [6] = test: Anti-neuroinflammatory activity against LPS-stimulated C57BL/6 mouse BV-2 cells assessed as inhibition of NO release preincubated with compound for 4 hrs followed by LPS addition and measured after 24 hrs by Griess reagent based assay; assay type: functional, cell-based; details: C57BL/6, BV-2
# BV-2 [7] = test: Anti-neuroinflammatory activity against LPS-stimulated C57BL/6 mouse BV-2 cells assessed as inhibition of NO release at 30 uM preincubated with compound for 4 hrs followed by LPS addition and measured after 24 hrs by Griess reagent based assay relative to control; assay type: functional; details: C57BL/6, BV-2, time 28 hrs
Compound,"viability at 24 h, 30 µM [5] [%]",IC50 (BV-2 [6]) [µM],inhibition at 30 µM (BV-2 [7]) [%],further results
CCN1C[C@]2(COC(=O)c3ccccc3NC(=O)c3ccc(Cl)s3)CC[C@H](OC)[C@]34C1[C@@H](C[C@H]23)[C@@]1(O)C[C@H](OC)[C@H]2C[C@@H]4[C@]1(O)[C@H]2OC,,,,"inhibition at 10 µM (BV-2 [1]): 13.5%; viability at 24 h, 10 µM [2]: 105%"
CCN1C[C@]2(COC)CC[C@H](OC)[C@]34C1[C@@H](C[C@H]23)[C@@]1(O)C[C@H](OC)[C@H]2C[C@@H]4[C@]1(O)[C@H]2OC(=O)c1ccccc1NS(=O)(=O)c1ccc(Br)s1,,,,"viability at 24 h, 20 µM [3]: 110%; inhibition at 20 µM (BV-2 [4]): 32.8%"
CCCOc1ccccc1C(=O)Nc1ccccc1C(=O)O[C@@]12CC[C@H](OC)[C@]34C([C@@H](C[C@H]13)[C@@]1(O)C[C@H](OC)[C@H]3C[C@@H]4[C@]1(O)[C@H]3OC)N(CC)C2,106,11.8,78.5,
CCN1C[C@]2(OC(=O)c3ccccc3NC(=O)S(=O)(=O)c3ccccc3F)CC[C@H](OC)[C@]34C1[C@@H](C[C@H]23)[C@@]1(O)C[C@H](OC)[C@H]2C[C@@H]4[C@]1(O)[C@H]2OC,106,18.9,68,
CCN1C[C@]2(OC(=O)c3ccccc3NC(=O)CC(C)(C)C)CC[C@H](OC)[C@]34C1[C@@H](C[C@H]23)[C@@]1(O)C[C@H](OC)[C@H]2C[C@@H]4[C@]1(O)[C@H]2OC,106,16.1,74.8,
CCN1C[C@]2(OC(=O)c3ccccc3NC(=O)S(=O)(=O)c3cccnc3)CC[C@H](OC)[C@]34C1[C@@H](C[C@H]23)[C@@]1(O)C[C@H](OC)[C@H]2C[C@@H]4[C@]1(O)[C@H]2OC,99.3,22.2,63.2,
CCN1C[C@]2(OC(=O)c3ccccc3NC(=O)S(=O)(=O)c3cc(F)cc(F)c3)CC[C@H](OC)[C@]34C1[C@@H](C[C@H]23)[C@@]1(O)C[C@H](OC)[C@H]2C[C@@H]4[C@]1(O)[C@H]2OC,102,20.4,64.1,
CCN1C[C@]2(COC)CC[C@H](OC)[C@]34C1[C@@H](C[C@H]23)[C@@]1(O)C[C@H](OC)[C@H]2C[C@@H]4[C@]1(O)[C@H]2OC(=O)c1ccccc1NS(=O)(=O)c1cccc(F)c1,,,,"viability at 24 h, 20 µM [3]: 100%; inhibition at 20 µM (BV-2 [4]): 18.5%"
CCN1C[C@]2(COC(=O)c3ccccc3NC(=O)c3ccc(Cl)s3)CC[C@H](OC)[C@]34C1[C@@H](C[C@H]23)[C@@]1(O)C[C@H](OC)[C@H]2C[C@@H]4[C@]1(O)[C@H]2O,,,,"viability at 24 h, 20 µM [3]: 104%; inhibition at 20 µM (BV-2 [4]): 45.3%"
CCc1ccc(C(=O)Nc2ccccc2C(=O)OC[C@@]23CC[C@H](OC)[C@]45C([C@@H](C[C@H]24)[C@@]2(O)C[C@H](OC)[C@H]4C[C@@H]5[C@]2(O)[C@H]4OC)N(CC)C3)cc1,,,,"viability at 24 h, 20 µM [3]: 102%; inhibition at 20 µM (BV-2 [4]): 21.7%"
CCN1C[C@]2(COC)CC[C@H](OC)[C@]34C1[C@@H](C[C@H]23)[C@@]1(O)C[C@H](OC)[C@H]2C[C@@H]4[C@]1(O)[C@H]2OC(=O)c1ccccc1NC(=O)c1ccc(Cl)s1,,,,"inhibition at 10 µM (BV-2 [1]): 22.2%; viability at 24 h, 10 µM [2]: 97.8%"
CCN1C[C@]2(OC(=O)c3ccccc3NC(=O)c3ccc(N(C)C)cc3)CC[C@H](OC)[C@]34C1[C@@H](C[C@H]23)[C@@]1(O)C[C@H](OC)[C@H]2C[C@@H]4[C@]1(O)[C@H]2OC,101,23.6,62.4,
CCN1C[C@]2(OC(=O)c3ccccc3NC(=O)S(=O)(=O)c3c(C)c(C)c4c(c3C)CC(C)(C)O4)CC[C@H](OC)[C@]34C1[C@@H](C[C@H]23)[C@@]1(O)C[C@H](OC)[C@H]2C[C@@H]4[C@]1(O)[C@H]2OC,,,,"inhibition at 10 µM (BV-2 [1]): 17.5%; viability at 24 h, 10 µM [2]: 95.8%"
CCc1ccc(C(=O)Nc2ccccc2C(=O)O[C@H]2[C@@H]3C[C@H]4[C@@]56C7[C@@H](C[C@@H]5[C@@](COC)(CC[C@@H]6OC)CN7CC)[C@@](O)(C[C@@H]3OC)[C@@]24O)cc1,,,,"viability at 24 h, 10 µM [2]: 1.2%"
CCN1C[C@]2(OC(=O)c3ccccc3NC(=O)c3ccc(Br)s3)CC[C@H](OC)[C@]34C1[C@@H](C[C@H]23)[C@@]1(O)C[C@H](OC)[C@H]2C[C@@H]4[C@]1(O)[C@H]2OC,103,16.5,72.9,
CCN1C[C@]2(OC(=O)c3ccccc3NC(=O)S(=O)(=O)c3ccc(Cl)s3)CC[C@H](OC)[C@]34C1[C@@H](C[C@H]23)[C@@]1(O)C[C@H](OC)[C@H]2C[C@@H]4[C@]1(O)[C@H]2OC,100,17.9,69,
CCN1C[C@]2(OC(=O)c3ccccc3NC(=O)c3ccc(Cl)s3)CC[C@H](OC)[C@]34C1[C@@H](C[C@H]23)[C@@]1(O)C[C@H](OC)[C@H]2C[C@@H]4[C@]1(O)[C@H]2OC,108,11.3,82.1,
CCCOc1ccc(C(=O)Nc2ccccc2C(=O)O[C@@]23CC[C@H](OC)[C@]45C([C@@H](C[C@H]24)[C@@]2(O)C[C@H](OC)[C@H]4C[C@@H]5[C@]2(O)[C@H]4OC)N(CC)C3)cc1,105,15.5,74.8,
CCN1C[C@]2(OC(=O)c3ccccc3NC(=O)S(=O)(=O)c3c(Cl)sc4ccccc34)CC[C@H](OC)[C@]34C1[C@@H](C[C@H]23)[C@@]1(O)C[C@H](OC)[C@H]2C[C@@H]4[C@]1(O)[C@H]2OC,,,,"inhibition at 10 µM (BV-2 [1]): 26.4%; viability at 24 h, 10 µM [2]: 98.5%"
CCCc1ccc(S(=O)(=O)C(=O)Nc2ccccc2C(=O)O[C@@]23CC[C@H](OC)[C@]45C([C@@H](C[C@H]24)[C@@]2(O)C[C@H](OC)[C@H]4C[C@@H]5[C@]2(O)[C@H]4OC)N(CC)C3)cc1,92.3,,43.4,
CCN1C[C@]2(OC(=O)c3ccccc3NC(=O)S(=O)(=O)c3ccc(Cl)cc3F)CC[C@H](OC)[C@]34C1[C@@H](C[C@H]23)[C@@]1(O)C[C@H](OC)[C@H]2C[C@@H]4[C@]1(O)[C@H]2OC,99.8,,14.9,
CCN1C[C@]2(OC(=O)c3ccccc3NC(=O)c3ccccc3Cl)CC[C@H](OC)[C@]34C1[C@@H](C[C@H]23)[C@@]1(O)C[C@H](OC)[C@H]2C[C@@H]4[C@]1(O)[C@H]2OC,104,,12.8,
CCN1C[C@]2(OC(=O)c3ccccc3NC(=O)c3ccc(F)cc3)CC[C@H](OC)[C@]34C1[C@@H](C[C@H]23)[C@@]1(O)C[C@H](OC)[C@H]2C[C@@H]4[C@]1(O)[C@H]2OC,104,,22.3,
CCN1C[C@]2(OC(=O)c3ccccc3NC(=O)S(=O)(=O)c3cccc(Cl)c3)CC[C@H](OC)[C@]34C1[C@@H](C[C@H]23)[C@@]1(O)C[C@H](OC)[C@H]2C[C@@H]4[C@]1(O)[C@H]2OC,95.4,,13.9,
CCc1ccc(C(=O)Nc2ccccc2C(=O)O[C@@]23CC[C@H](OC)[C@]45C([C@@H](C[C@H]24)[C@@]2(O)C[C@H](OC)[C@H]4C[C@@H]5[C@]2(O)[C@H]4OC)N(CC)C3)cc1,107,10.4,83.9,
CCN1C[C@]2(OC(=O)c3ccccc3NC(=O)S(=O)(=O)c3ccc(Br)s3)CC[C@H](OC)[C@]34C1[C@@H](C[C@H]23)[C@@]1(O)C[C@H](OC)[C@H]2C[C@@H]4[C@]1(O)[C@H]2OC,103,11.4,81.9,
CCN1C[C@]2(OC(=O)c3ccccc3NC(=O)S(=O)(=O)c3ccc(OC)c(F)c3)CC[C@H](OC)[C@]34C1[C@@H](C[C@H]23)[C@@]1(O)C[C@H](OC)[C@H]2C[C@@H]4[C@]1(O)[C@H]2OC,103,,11.1,
